Source: ChEMBL document CHEMBL1201862, “PubChem BioAssay data set” (2004)
The source made the active and inactive calls. Cut-off read from the data, not from the text of the source: actives have a measured IC50 and inactives only a lower limit.

Molecular target: Envelope glycoprotein gp160 (Human immunodeficiency virus 1, UniProt Q6QLK5)
Experiment: cell-free HIV fusion peptide-binding blockers – biochemical, uHTS, fluorescence dequenching, […] (AID 1986)

Chain of Envelope glycoprotein gp160 (Q6QLK5 whole entry, the tested form may be a part): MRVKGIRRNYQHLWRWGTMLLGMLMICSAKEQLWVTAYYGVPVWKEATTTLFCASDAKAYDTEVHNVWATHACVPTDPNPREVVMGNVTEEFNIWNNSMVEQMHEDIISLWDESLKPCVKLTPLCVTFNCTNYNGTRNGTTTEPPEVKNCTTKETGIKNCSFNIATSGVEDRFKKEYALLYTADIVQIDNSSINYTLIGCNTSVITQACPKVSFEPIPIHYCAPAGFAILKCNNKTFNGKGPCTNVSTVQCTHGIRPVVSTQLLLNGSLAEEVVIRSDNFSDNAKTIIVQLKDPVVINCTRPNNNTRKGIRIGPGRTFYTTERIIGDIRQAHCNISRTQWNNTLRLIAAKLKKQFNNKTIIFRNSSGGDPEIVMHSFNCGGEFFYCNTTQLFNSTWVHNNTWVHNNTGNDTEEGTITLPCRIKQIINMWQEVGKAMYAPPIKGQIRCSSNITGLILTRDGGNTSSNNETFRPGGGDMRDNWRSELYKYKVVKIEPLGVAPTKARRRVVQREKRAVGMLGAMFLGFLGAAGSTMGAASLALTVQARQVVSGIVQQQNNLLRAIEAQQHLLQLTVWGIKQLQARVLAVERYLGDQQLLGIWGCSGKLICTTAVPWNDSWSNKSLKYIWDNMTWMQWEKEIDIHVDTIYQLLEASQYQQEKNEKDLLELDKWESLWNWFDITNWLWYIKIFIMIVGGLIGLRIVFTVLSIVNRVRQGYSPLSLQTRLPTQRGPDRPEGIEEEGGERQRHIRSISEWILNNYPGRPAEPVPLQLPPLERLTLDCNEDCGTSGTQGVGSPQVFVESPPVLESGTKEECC

Row | Structure (SMILES) | IC50
1 | COc1ccc(O)c(C(=O)c2cc(SCC(=O)O)c3nc4sc5c(c4c(=O)n3c2)CCCC5)c1 | 14.2 µM (active)
2 | COc1cc(/C=C2/C(=O)NN(c3ccc(C)c(Cl)c3)C2=O)cc([N+](=O)[O-])c1O | 30.2 µM (active)
3 | O=C(CCN1C(=O)/C(=C\c2ccccc2F)SC1=S)Nc1ccc(C(=O)O)c(O)c1 | 15.1 µM (active)
4 | O=[N+]([O-])c1cc(Cl)cc(/C=N/NC(=S)Nc2ccc(S(=O)(=O)N3CCOCC3)cc2)c1O | 28.2 µM (active)
